According to PubChem BioAssay (NCI):
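Dose response: 5 concentrations. Exposure: 48 h. Format: 96-well plates. Endpoint: linear interpolation; highest concentration if not reached. Here, GI50 denotes the concentration required for 50% inhibition of growth. At the TGI there is no net growth.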

Tests used:
Assay in all cases: inhibition of tumour cell growth, NCI panel, 48 h
A498 renal = tested on: A498 renal
HCC-2998 colon = tested on: HCC-2998 colon
MALME-3M melanoma = tested on: MALME-3M melanoma
MOLT-4 leukemia = tested on: MOLT-4 leukemia
NCI-H460 lung = tested on: NCI-H460 lung
NCI-H522 lung = tested on: NCI-H522 lung
OVCAR-8 ovarian = tested on: OVCAR-8 ovarian
SK-MEL-2 melanoma = tested on: SK-MEL-2 melanoma
SW-620 colon = tested on: SW-620 colon
TK-10 renal = tested on: TK-10 renal

Which results are given for `COc1ccc2c(c1)/C(=C\c1c(C)nc3sccn13)C(=O)N2`?
GI50 (A498 renal): < 0.01 µM; TGI (A498 renal): 0.0646 µM; GI50 (HCC-2998 colon): 0.0392 µM; TGI (HCC-2998 colon): 8.21 µM; GI50 (MALME-3M melanoma): < 0.0478 µM; TGI (MALME-3M melanoma): 97.4 µM; GI50 (MOLT-4 leukemia): < 0.0462 µM; TGI (NCI-H460 lung): > 100 µM; GI50 (NCI-H522 lung): < 0.01 µM; GI50 (OVCAR-8 ovarian): 0.306 µM; GI50 (SK-MEL-2 melanoma): 0.162 µM; TGI (SK-MEL-2 melanoma): > 83.7 µM; GI50 (SW-620 colon): < 0.0476 µM; TGI (SW-620 colon): > 100 µM; TGI (TK-10 renal): > 63.5 µM

Which TGI (A498 renal) does the source give for `CC(CCC(=O)O)[C@H]1CCC2[C@@H]3CC[C@@H]4CC(O)CC[C@]4(C)C3CC[C@@]21C` (stereo partly drawn) here?
The TGI was over 100 µM.

What about the GI50 (HCC-2998 colon) of the same compound?
Its GI50 is 22.2 µM.

And the TGI (HCC-2998 colon)?
Its TGI is 61 µM.

And the GI50 (MALME-3M melanoma)?
Its GI50 is over 100 µM.

What about the TGI (MALME-3M melanoma) of the same compound?
Its TGI is over 100 µM.

And the GI50 (MOLT-4 leukemia)?
Its GI50 is 22 µM.

What about the TGI (MOLT-4 leukemia) of the same compound?
Its TGI is 79 µM.

And the GI50 (NCI-H460 lung)?
Its GI50 is 31 µM.

What about the TGI (NCI-H460 lung) of the same compound?
Its TGI is 97.4 µM.

What about the GI50 (NCI-H522 lung) of the same compound?
Its GI50 is 68.1 µM.

And the TGI (NCI-H522 lung)?
Its TGI is over 100 µM.

What about the GI50 (OVCAR-8 ovarian) of the same compound?
Its GI50 is 50 µM.

What about the TGI (OVCAR-8 ovarian) of the same compound?
Its TGI is over 100 µM.

What about the GI50 (SK-MEL-2 melanoma) of the same compound?
The GI50 was 28.5 µM.

What about the TGI (SK-MEL-2 melanoma) of the same compound?
Its TGI is 87.1 µM.

And the GI50 (SW-620 colon)?
Its GI50 is 42.4 µM.

And the TGI (SW-620 colon)?
Its TGI is over 100 µM.

What about the GI50 (TK-10 renal) of the same compound?
The GI50 was 42.2 µM.

And the TGI (TK-10 renal)?
The TGI was over 100 µM.

How did the GI50 (A498 renal) turn out when `C1C[OH+]CC[OH+]CCNCC[OH+]CC[OH+]CCN1.N.[Cl-].[Pt+4]` was run?
Its GI50 is 21.3 µM.

What about the TGI (A498 renal) of the same compound?
Its TGI is 55.1 µM.

What about the GI50 (HCC-2998 colon) of the same compound?
The GI50 was 13.5 µM.

And the TGI (HCC-2998 colon)?
The TGI was 32.6 µM.

And the GI50 (MALME-3M melanoma)?
Its GI50 is 3.14 µM.

What about the TGI (MALME-3M melanoma) of the same compound?
The TGI was 18.3 µM.

What about the GI50 (MOLT-4 leukemia) of the same compound?
Its GI50 is 3.89 µM.

What about the TGI (MOLT-4 leukemia) of the same compound?
The TGI was 36.3 µM.

What about the GI50 (NCI-H460 lung) of the same compound?
The GI50 was 1.81 µM.

And the TGI (NCI-H460 lung)?
Its TGI is 63.9 µM.

What about the GI50 (NCI-H522 lung) of the same compound?
The GI50 was 12.9 µM.

And the TGI (NCI-H522 lung)?
Its TGI is 48.1 µM.

What about the GI50 (OVCAR-8 ovarian) of the same compound?
Its GI50 is 17 µM.

What about the TGI (OVCAR-8 ovarian) of the same compound?
Its TGI is over 100 µM.

And the GI50 (SK-MEL-2 melanoma)?
Its GI50 is 19.9 µM.

What about the TGI (SK-MEL-2 melanoma) of the same compound?
Its TGI is 53 µM.

What about the GI50 (SW-620 colon) of the same compound?
Its GI50 is 7.62 µM.

What about the TGI (SW-620 colon) of the same compound?
The TGI was over 100 µM.

And the GI50 (TK-10 renal)?
Its GI50 is 8.31 µM.

What about the TGI (TK-10 renal) of the same compound?
Its TGI is 71.3 µM.

How did the GI50 (A498 renal) turn out when `COc1ccc(/C=C2\CCCC3=C2N=C2SC(C)=NN2C3c2ccc(OC)c(OC)c2)cc1OC` (stereo not drawn) was run?
The GI50 was 2 µM.

And the TGI (A498 renal)?
The TGI was 86.3 µM.

And the GI50 (HCC-2998 colon)?
Its GI50 is over 100 µM.

What about the TGI (HCC-2998 colon) of the same compound?
The TGI was over 100 µM.

And the GI50 (MALME-3M melanoma)?
The GI50 was 15.1 µM.

What about the TGI (MALME-3M melanoma) of the same compound?
The TGI was 56.6 µM.

And the GI50 (MOLT-4 leukemia)?
Its GI50 is 13.8 µM.

And the TGI (MOLT-4 leukemia)?
Its TGI is over 100 µM.

What about the GI50 (NCI-H460 lung) of the same compound?
Its GI50 is 23.8 µM.

What about the TGI (NCI-H460 lung) of the same compound?
Its TGI is over 100 µM.

And the GI50 (NCI-H522 lung)?
Its GI50 is 10.8 µM.

And the TGI (NCI-H522 lung)?
The TGI was 57.8 µM.

What about the GI50 (OVCAR-8 ovarian) of the same compound?
The GI50 was 6.31 µM.

And the TGI (OVCAR-8 ovarian)?
The TGI was over 100 µM.

And the GI50 (SK-MEL-2 melanoma)?
Its GI50 is 22.2 µM.

What about the TGI (SK-MEL-2 melanoma) of the same compound?
Its TGI is 97.1 µM.

What about the GI50 (SW-620 colon) of the same compound?
The GI50 was 6.79 µM.

And the TGI (SW-620 colon)?
Its TGI is 53.8 µM.

What about the GI50 (TK-10 renal) of the same compound?
The GI50 was 5.99 µM.

And the TGI (TK-10 renal)?
The TGI was 51.2 µM.

`COc1cc(C2CC(c3ccc4c(c3)OCO4)=NN2C=O)cc(OC)c1OC` (stereo not drawn) was tested. Which GI50 (A498 renal) did it give?
The GI50 was 0.828 µM.

And the GI50 (HCC-2998 colon)?
The GI50 was 4.44 µM.

What about the TGI (HCC-2998 colon) of the same compound?
Its TGI is over 100 µM.

And the GI50 (MALME-3M melanoma)?
Its GI50 is 1.93 µM.

And the TGI (MALME-3M melanoma)?
Its TGI is over 100 µM.

What about the GI50 (MOLT-4 leukemia) of the same compound?
The GI50 was 4.34 µM.

What about the TGI (MOLT-4 leukemia) of the same compound?
The TGI was over 100 µM.

And the GI50 (NCI-H460 lung)?
The GI50 was 1.37 µM.

What about the TGI (NCI-H460 lung) of the same compound?
Its TGI is over 100 µM.

What about the GI50 (NCI-H522 lung) of the same compound?
Its GI50 is 1.22 µM.

What about the TGI (NCI-H522 lung) of the same compound?
Its TGI is over 27.6 µM.

And the GI50 (OVCAR-8 ovarian)?
Its GI50 is over 23.3 µM.

And the TGI (OVCAR-8 ovarian)?
Its TGI is over 100 µM.

And the GI50 (SK-MEL-2 melanoma)?
The GI50 was 9.46 µM.

And the TGI (SK-MEL-2 melanoma)?
The TGI was over 100 µM.

What about the GI50 (SW-620 colon) of the same compound?
The GI50 was 1.21 µM.

And the TGI (SW-620 colon)?
Its TGI is over 100 µM.

And the GI50 (TK-10 renal)?
Its GI50 is over 29.9 µM.

And the TGI (TK-10 renal)?
Its TGI is over 100 µM.

For `O=C1[C@H]2ON(c3ccccc3)C(c3ccccc3Cl)[C@H]2C(=O)N1c1ccc(Cc2ccc(N3C(=O)[C@@H]4ON(c5ccccc5)C(c5ccccc5Cl)[C@@H]4C3=O)cc2)cc1` (stereo partly drawn), which TGI (A498 renal) is on record?
Its TGI is over 100 µM.

What about the TGI (HCC-2998 colon) of the same compound?
The TGI was over 100 µM.

And the TGI (MALME-3M melanoma)?
The TGI was over 100 µM.

What about the TGI (MOLT-4 leukemia) of the same compound?
Its TGI is over 100 µM.

What about the TGI (NCI-H460 lung) of the same compound?
Its TGI is over 100 µM.

And the TGI (NCI-H522 lung)?
The TGI was over 100 µM.

What about the TGI (OVCAR-8 ovarian) of the same compound?
Its TGI is over 100 µM.

And the TGI (SK-MEL-2 melanoma)?
Its TGI is over 100 µM.

And the TGI (SW-620 colon)?
Its TGI is over 100 µM.

What about the TGI (TK-10 renal) of the same compound?
Its TGI is over 100 µM.
